This note sets out measurements from patent publication US20250034211A1, “C-TERMINAL EXTENDED P53 ACTIVATOR CROSSLINKED PEPTIDOMIMETIC MACROCYCLES AGAINST MDM2/MDMX” (Merck Sharp & Dohme LLC, priority 2021, published 2025).

Values after ≈ are worked out from the molar mass of the structure shown. Like-named read-outs stand apart in the source and are kept apart here. Where a SMILES comes first, the peptide text is derived from it. Bridges are numbered along the chain shown (N, C = ends). [ ]: non-standard residue; d: D form. Lys(N3) = [N-]=[N+]=NCCCC[C@H](N)C(=O)O; R8 = C=CCCCCCC[C@@](C)(N)C(=O)O; Cba = N[C@@H](CC1CCC1)C(=O)O; S5 = C=CCCC[C@](C)(N)C(=O)O; βAla = NCCC(=O)O Bounds are passed on as bounds.

The subject of one data set is HCT116 cells. Kind of data set: Lactate dehydrogenase release assay (LDH). In kind it is cell-based. The procedure: HCT116 cells were seeded into a 384-well plate at a density of 8000 cells per well. Cells were maintained in McCoy's 5A Medium with 10% fetal bovine serum (FBS), Blasticidin and Penicillin/Streptomycin. The cells were incubated overnight followed by the removal of cell media and the addition of Opti-MEM Medium without FBS. Cells were then treated with peptides for 4/16 hours in Opti-MEM either in 10% FBS or serum free. Final concentration of DMSO was 0.5%. Lactate dehydrogenase release was detected using CytoTox-ONE Homogenous Membrane Integrity Assay Kit (Promega) as per manufacturer's instructions. Measurements were carried out using Tecan plate reader. Maximum LDH release was defined as the amount of LDH released induced by the lytic peptide (iDNA79) and used to normalize the results.

Data set [1] in a line: Circular dichroism (CD) helicity. The class given is physicochemical. The procedure: The dried peptide was reconstituted in a buffer containing 1 mM HEPES pH 7.4 and 5% methanol to a concentration of 1 mM. The peptide sample was placed in a quartz cuvette with a path length of 0.2 cm and a CD spectrum was recorded from 300 to 190 nm at 25° C. using the Chirascan-plus qCD machine (Applied Photophysics). The actual concentration of the peptide was determined by the absorbance of the peptide at […]. An estimate of the secondary structure components of the peptide was carried out by converting the CD spectrum to mean residue ellipticity before deconvoluting using the CDNN software (distributed by Applied Photophysics). All experiments were done in duplicate.
On the technique in general: Circular dichroism is widely used to follow secondary structure.

Data set [2] addresses T1, MDM2 (1-125; SEQ ID NO 14) (Homo sapiens, UniProt Q00987).
T1 construct: GST (N); His6 (internal); TEV cleavage site ENLYFQG (internal); made in house; host or cells: E. coli BL21 (DE3) Rosetta T1R
Kind of data set: MDM2 binding assay (fluorescence anisotropy competition, FP). As for the experimental part: [P] is the protein concentration (MDM2), [L] is the labeled peptide concentration, r is the anisotropy measured, r0 is the anisotropy of the free peptide, rb is the anisotropy of the MDM2-FAM-labeled peptide complex, Kd is the dissociation constant, [L]t is the total FAM labeled peptide concentration, and [P]t is the total MDM2 concentration. […] The competing molecules were then titrated against the complex of the FAM-labeled peptide and protein. Apparent Kd values were determined by fitting the experimental data to the equations shown below:
[L]st and [L]t denote labeled ligand and total unlabeled ligand input concentrations, respectively. Kd2 is the dissociation constant of the interaction between the unlabeled ligand and the protein. In all competition experiments, it is assumed that [P]t>[L]st, otherwise considerable amounts of free labeled ligand would always be present and would interfere with measurements. […] The FAM-labeled peptide was dissolved in dimethyl sulfoxide (DMSO) at 1 mM and diluted into experimental buffer. Readings were carried out with an Envision Multilabel Reader (PerkinElmer). […] All titrations were carried out in triplicate. Curve-fitting was carried out using Prism 4.0 (GraphPad). […] Negative control titrations of the ligands under investigation were also carried out with the fluorescently labeled peptide (in the absence of MDM2) to ensure no interactions were occurring between the ligands and the FAM-labeled peptide.
(Fluorescence polarisation rises when a labelled molecule tumbles more slowly, as on binding a larger partner.)

A further data set in a line: Solubility (PBS, pH 7). The settings on record: PBS, pH 7.
Data set [3] concerns Jump-In T-REx CHO-K1 BLA cells. Kind of data set: Tetracycline beta-lactamase reporter gene assay (counter screen). In kind it is cell-based. As for the experimental part: Based on Jump-In™ T-REx™ CHO-K1 BLA cells and contain a stably integrated β-lactamase under the control of an inducible CMV promoter. Cells were seeded into a 384-well plate a density of 4000 cells per well. Cells were maintained in Dulbecco's Minimal Eagle Medium (DMEM) with 10% fetal bovine serum (FBS), Blasticidin and Penicillin/Streptomycin. The cells were incubated for 24 hours, followed by cell media removal and replacement with Opti-MEM either containing 10% FBS or 0% FBS. Peptides were then dispensed to each well using a liquid handler, ECHO 555 and incubated for 4/16 hours. Final working concentration of DMSO was 0.5%. β-Lactamase activity was detected using the ToxBLAzer Dual Screen (Invitrogen) as per manufacturer's instructions. Measurements were carried out using Envision multiplate reader (Perkin Elmer). Counter Screen activity was defined as the amount of 0-lactamase activity induced by tetracycline.
A general note: Reporter assays use an easily measured gene product as a stand-in for the process of interest.

The next data set has as its system p53 null Ca Ski. The conditions noted are these: 72 h, 10% serum.
For data set [4], the system named is p53 (HCT116 cells stably transfected with a p53 responsive β-lactamase reporter). Put plainly: p53 beta-lactamase reporter gene cellular functional assay. In kind it is cell-based. The procedure: HCT116 cells were stably transfected with a p53 responsive β-lactamase reporter, and were seeded into a 384-well plate at a density of 8,000 cells per well. Cells were maintained in McCoy's 5A Medium with 10% fetal bovine serum ([…]), Blasticidin and Penicillin/Streptomycin. The cells were incubated overnight and followed by removal of cell growth media and replaced with Opti-MEM either containing 0% FBS or 10% FBS. Peptides were then dispensed to each well using a liquid handler, ECHO 555 and incubated for 4/16 hours. Final working concentration of dimethyl sulfoxide (DMSO) was 0.5%. β-Lactamase activity was detected using the ToxBLAzer Dual Screen (Invitrogen) as per manufacturer's instructions. Measurements were done using Envision multiplate reader (Perkin-Elmer). Maximum p53 activity was defined as the amount of β-lactamase activity induced by 50 μM azide-ATSP-7041 (stapled p53 peptide; Aileron Therapeutics, Inc.). This was determined as the highest amount of p53 activity induced by azide-ATSP-7041 by titration on HCT116 cells.

The mark [5] stands for this setting: read-out: cellular efficacy in cell proliferation HTC116 p53 positive control cell lines.

T1 sequence (Q00987 with tags, fused parts or gaps): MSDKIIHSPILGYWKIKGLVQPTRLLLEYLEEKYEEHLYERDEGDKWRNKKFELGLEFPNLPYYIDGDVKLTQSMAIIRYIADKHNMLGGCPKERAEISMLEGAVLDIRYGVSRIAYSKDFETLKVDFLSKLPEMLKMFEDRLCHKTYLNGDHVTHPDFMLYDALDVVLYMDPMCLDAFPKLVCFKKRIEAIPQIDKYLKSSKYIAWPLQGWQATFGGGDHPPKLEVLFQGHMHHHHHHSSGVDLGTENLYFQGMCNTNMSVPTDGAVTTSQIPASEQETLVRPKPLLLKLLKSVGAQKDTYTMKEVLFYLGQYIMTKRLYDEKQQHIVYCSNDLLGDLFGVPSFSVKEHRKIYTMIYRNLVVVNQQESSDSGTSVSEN

Usually logD stands for the decadic logarithm of the distribution of all forms, ionised or not, between an organic phase and buffer at a given pH. Low readings indicate a more hydrophilic compound, high ones a more lipophilic compound. The term Kd denotes the constant that tells how readily two partners part at equilibrium. Higher therefore signals weaker binding. One may read the solubility as the dissolved amount per volume that the medium holds. Read a low solubility as a poorly soluble substance. For the compound `CC(=O)N[C@@H](CCCCN=[N+]=[N-])C(=O)NCCC(=O)N[C@@H](CC(C)C)C(=O)N[C@H](C(=O)N[C@@H](Cc1ccccc1)C(=O)N[C@]1(C)CCCCCCC=CCCC[C@@](C)(C(=O)N[C@@H](C)C(=O)N[C@@H](C)C(=O)N[C@@H](C)C(=O)N[C@@H](C)C(=O)N[C@@H](C)C(=O)N[C@H](C)C(N)=O)NC(=O)[C@H](CC2CCC2)NC(=O)[C@H](CCC(N)=O)NC(=O)[C@H](C)NC(=O)[C@H](Cc2c[nH]c3ccccc23)NC(=O)[C@H](Cc2ccc(O)cc2)NC(=O)[C@H](CCC(=O)O)NC1=O)[C@@H](C)O` [Macrocycle 3, Ac-K(N3)-betaAla-L-T-F-X1a-E-Y-W-A-Q-Cba-X2a-AAAAA-(D-Ala)-NH2(olefinstaple from X1ato X2a)] (Ac-[Lys(N3)][βAla]LTF[R8]EYWAQ[Cba][S5]AAAAA[dA]-NH2; staple 6-13), the EC50 was over 50 µM in the data set on HCT116 cells (0% FBS, 4 h); over 50 µM in the data set on HCT116 cells (10% FBS, 16 h); 0.42 µM in the data set on HCT116 (setting [5]); over 50 µM in [3] (0% FBS, 4 h); over 50 µM in [3] (10% FBS, 16 h). The “CD (% helicity)” value in data set [1] was 47%. This compound yielded a logD in the data set “HPLC LogD” of 3.15. Also, the affinity in [2], expressed as Kd, was 0.031 µM. The solubility in the data set “Solubility (PBS, pH 7)” came out at 157 µM (≈ 340 µg/mL). The “HCT116 proliferation % Max” value with HCT116 (72 h, 10% serum) stood at 71%. The “p53 null Ca Ski proliferation % Max” value in the data set on p53 null Ca Ski is recorded as 10%.

`CC(=O)N[C@@H](CCCCN=[N+]=[N-])C(=O)NCCC(=O)N[C@@H](CC(C)C)C(=O)N[C@H](C(=O)N[C@@H](Cc1ccccc1)C(=O)N[C@]1(C)CCCCCCC=CCCC[C@@](C)(C(=O)N[C@@H](C)C(=O)N[C@@H](C)C(=O)N[C@@H](Cc2ccccc2)C(=O)N[C@@H](C)C(=O)N[C@@H](C)C(=O)N[C@@H](Cc2ccccc2)C(N)=O)NC(=O)[C@H](CC2CCC2)NC(=O)[C@H](CCC(N)=O)NC(=O)[C@H](C)NC(=O)[C@H](Cc2c[nH]c3ccccc23)NC(=O)[C@H](Cc2ccc(O)cc2)NC(=O)[C@H](CCC(=O)O)NC1=O)[C@@H](C)O` [Macrocycle 4, Ac-K(N3)-betaAla-L-T-F-X1a-E-Y-W-A-Q-Cba-X2a-AAFAAF-NH2 (olefin staple from X1a to X2a)] (Ac-[Lys(N3)][βAla]LTF[R8]EYWAQ[Cba][S5]AAFAAF-NH2; staple 6-13): the EC50 in the data set with HCT116 cells (0% FBS, 4 h) was over 50 µM; in the data set with HCT116 cells (10% FBS, 16 h) it was over 50 µM; in the data set on HCT116 (read-out: HCT116 proliferation EC50, 72 h, 10% serum) it was 1.21 µM; in the data set with HCT116 (setting [5]), 1.22 µM; in data set [4] (0% serum at 4 hours), 0.036 µM; in [4] (10% serum at 16 hours) it was 0.237 µM. Also, the EC50 was 34.5 µM in data set [3] (0% FBS, 4 h) and over 50 µM in data set [3] (10% FBS, 16 h). Moreover, the “CD (% helicity)” value in [1] is recorded as 45%. The dissociation constant Kd in data set [2] was 0.027 µM. In the data set on HCT116 (72 h, 10% serum), the “HCT116 proliferation % Max” value is 68%.
